In paper PMC3894558, “Chemical signatures and new drug targets for gametocytocidal drug development” (Scientific Reports, 2014):
Where a name gives a salt, the structure may show the parent alone. Read-outs that look alike come from different tables or passages of the source. Starred links: 1 amine or outer side, 2 acyl side, 3 side chain; linkers in the order of their positions; H or OH if unused. Positions of bridges follow the written chain, without caps; N, C: chain ends. Non-standard residues stand in square brackets, D forms with d. Residues, ends and D or L forms follow the SMILES beside them. Chains are numbered I, II in the order given. Actinocin(9to1) = Cc1c2oc3c(C)ccc(C(=O)[*:1])c3nc-2c(C(=O)[*:2])c(N)c1=O; NMeV = CN[C@H](C(=O)O)C(C)C; Sar = CNCC(=O)O

How the values were obtained:
HepG2 cells [1] = settings: for IC50 in HepG2 cells / IC50: 11 concentrations, 1:3 dilution, Inactive = no significant activity at 46 µM; for % Max response: HepG2 cells; for IC50: read-out: IC50 in HepG2 cells
Description: (§1) Growth medium was made with Dulbecco's Modified Eagle Medium with 10% fetal bovine serum (FBS).

HepG2 cells [2] = assay: cells; settings: Homo sapiens, HepG2, read-out: % Max response
Description: as §1

[3] = tested on: P. falciparum 3D7 gametocytes; assay: alamarBlue gametocyte viability assay, strain 3D7; type: cell-based, Plasmodium falciparum
Protocol: Asexual parasites of P. falciparum strain 3D7 were cultured as described previously[55]. Briefly, gametocyte cultures were set up at 0.1% parasitemia and on days 9–10 treated with 50 mM N-acetylglucosamine (NAG) to block further asexual growth. Stage III–V gametocytes were isolated by Percoll density gradient centrifugation on day 12 and returned to culture for 24 hrs before being used in the assay[9]. […] Growth medium was made with Dulbecco's Modified Eagle Medium with 10% fetal bovine serum (FBS).
Compound screening experiments were performed as previously described[11]. Briefly, 2.5 μl/well incomplete medium was dispensed into each well of 1,536-well plates using the Multidrop Combi followed by 23 nl compound transferring using the NX-TR Pintool (WAKO Scientific Solutions, San Diego, CA). Then, 2.5 μl/well of gametocytes was dispensed with a seeding density of 20,000 cells/well using the Multidrop Combi. The assay plates were incubated for 72 hrs at 37°C with 5% CO2.
The primary screen data was analyzed using customized software developed internally[58]. IC50 values were calculated using the Prism software (Graphpad Software, Inc. San Diego, CA). Data were presented as means ± SEM with n = 3 independent experiments.

[4] = tested on: P. falciparum HB3 gametocytes; assay: alamarBlue gametocyte viability assay, strain HB3; type: cell-based, Plasmodium falciparum
Protocol: Briefly, gametocyte cultures were set up at 0.1% parasitemia and on days 9–10 treated with 50 mM N-acetylglucosamine (NAG) to block further asexual growth. Stage III–V gametocytes were isolated by Percoll density gradient centrifugation on day 12 and returned to culture for 24 hrs before being used in the assay[9].
Briefly, 2.5 μl/well incomplete medium was dispensed into each well of 1,536-well plates using the Multidrop Combi followed by 23 nl compound transferring using the NX-TR Pintool (WAKO Scientific Solutions, San Diego, CA). Then, 2.5 μl/well of gametocytes was dispensed with a seeding density of 20,000 cells/well using the Multidrop Combi. The assay plates were incubated for 72 hrs at 37°C with 5% CO2.

[5] = tested on: P. falciparum Dd2 gametocytes; assay: alamarBlue gametocyte viability assay, strain Dd2; type: cell-based, Plasmodium falciparum
[6] = tested on: P. falciparum asexual parasites; parameters: method as in earlier work; settings: SI Table 3, previous screens, cited from earlier work; for IC50: read-out: Activity against asexual parasites IC50
[7] = Plasmodium falciparum, 3D7, P. falciparum 3D7 gametocytes, mean of at least 3 independent experiments, read-out: Gametocyte IC50
[8] = Plasmodium falciparum, HB3, strain profiling, 11 concentrations, 1:3 dilution, three times, read-out: HB3-gametocytes IC50
[9] = Plasmodium falciparum, DD2, strain profiling, 11 concentrations, 1:3 dilution, three times, read-out: Dd2-gametocytes IC50
[10] = Plasmodium falciparum, 3D7, strain profiling, 11 concentrations, 1:3 dilution, three times, read-out: 3D7-gametocytes IC50
[11] = P. falciparum 3D7 gametocytes, mean of at least 3 independent experiments, read-out: Gametocyte IC50
[12] = strain profiling, 11 concentrations, 1:3 dilution, three times, read-out: HB3-gametocytes IC50
[13] = strain profiling, 11 concentrations, 1:3 dilution, three times, read-out: Dd2-gametocytes IC50
[14] = Plasmodium falciparum, 3D7, SI Table 3, structure clusters, read-out: Activity against gametocytes Efficacy (% response)
[15] = Plasmodium falciparum, 3D7, SI Table 3, structure clusters, read-out: Activity against gametocytes IC50
[16] = SI Table 3, structure clusters, read-out: Activity against gametocytes IC50
[17] = read-out: Gametocyte IC50, P. falciparum 3D7 gametocytes, mean of at least 3 independent experiments
[18] = read-out: HB3-gametocytes IC50, strain profiling, 11 concentrations, 1:3 dilution, three times
[19] = read-out: Dd2-gametocytes IC50, strain profiling, 11 concentrations, 1:3 dilution, three times

CCN(CCO)CCCOc1ccc2c(Nc3cc(CC(=O)Nc4cccc(F)c4)n[nH]3)ncnc2c1 [AZD-1152-HQPA]
IC50 in HepG2 cells (HepG2 cells [1]): Inactive | Emax (HepG2 cells [2]): 11% | IC50 [3, 7]: 0.743 µM | IC50 [4, 8]: 1.48 µM | IC50 [5, 9]: 1.48 µM

COc1cccc2c1C(=O)c1c(O)c3c(c(O)c1C2=O)C[C@@](O)(C(=O)CO)C[C@@H]3O[C@H]1C[C@H](N)[C@H](O)[C@H](C)O1 [Adriamycin]
IC50 in HepG2 cells (HepG2 cells [1]): Inactive | Emax (HepG2 cells [2]): -35% | IC50 [3, 7]: 0.526 µM | IC50 [4, 8]: 0.935 µM | IC50 [5, 9]: 1.05 µM

CO[C@H]1O[C@@H]2O[C@@]3(C)CC[C@H]4[C@H](C)CC[C@@H]([C@H]1C)[C@@]24OO3 [Artemether]
IC50 in HepG2 cells (HepG2 cells [1]): Inactive | Emax (HepG2 cells [2]): 7% | IC50 [3, 7]: 0.073 µM | IC50 [3, 10]: 0.074 µM | IC50 [4, 8]: 0.047 µM | IC50 [5, 9]: 0.053 µM

C[C@@H]1CC[C@H]2[C@@H](C)C(=O)O[C@@H]3O[C@@]4(C)CC[C@@H]1[C@]32OO4 [Artemisinin]
IC50 in HepG2 cells (HepG2 cells [1]): Inactive | Emax (HepG2 cells [2]): 18% | IC50 [3, 7]: 0.148 µM | IC50 [4, 8]: 0.074 µM | IC50 [5, 9]: 0.061 µM

C[C@H]1[C@@H](O)O[C@@H]2O[C@@]3(C)CC[C@H]4[C@H](C)CC[C@@H]1[C@@]24OO3 [Artenimol (DHA), Artenimol]
IC50 in HepG2 cells (HepG2 cells [1]): Inactive | Emax (HepG2 cells [2]): 20% | IC50 [3, 7]: 0.077 µM | IC50 [4, 8]: 0.059 µM | IC50 [5, 9]: 0.053 µM

C[C@H]1[C@H](OC(=O)CCC(=O)O)O[C@@H]2O[C@@]3(C)CC[C@H]4[C@H](C)CC[C@@H]1[C@@]24OO3 [Artesunate]
IC50 in HepG2 cells (HepG2 cells [1]): Inactive | Emax (HepG2 cells [2]): 18% | IC50 [3, 7]: 0.059 µM | IC50 [4, 8]: 0.047 µM | IC50 [5, 9]: 0.03 µM

CC(=O)OC[C@H]1O[C@@H]([S-])[C@H](OC(C)=O)[C@@H](OC(C)=O)[C@@H]1OC(C)=O.CCP(CC)CC.[Au+] [Auranofin]
% Max response (HepG2 cells [1]): -98% | IC50 (HepG2 cells [1]): 9.35 µM | IC50 [3, 11]: 0.935 µM | IC50 [4, 12]: 1.05 µM | IC50 [5, 13]: 1.18 µM

CC1(C)OC2=C(C(=O)c3ccccc3C2=O)[C@H](NCc2ccccc2)[C@@H]1O [CAY10581]
% Max response (HepG2 cells [1]): -86% | IC50 (HepG2 cells [1]): 17.1 µM | IC50 [3, 11]: 0.743 µM | IC50 [4, 12]: 0.662 µM | IC50 [5, 13]: 2.35 µM

CN1CCC(=C2c3ccccc3C=Cc3ccccc32)CC1 [Cyproheptadine]
Activity against gametocytes Efficacy (% response) ([3]; SI Table 3, structure clusters): -122.81 % response | Activity against asexual parasites Efficacy (% response) [6]: inactive | Activity against asexual parasites IC50 [6]: inactive

Cc1c2oc3c(C)ccc(C(=O)N[C@@H]4C(=O)N[C@H](C(C)C)C(=O)N5CCC[C@H]5C(=O)N(C)CC(=O)N(C)[C@@H](C(C)C)C(=O)O[C@@H]4C)c3nc-2c(C(=O)N[C@@H]2C(=O)N[C@H](C(C)C)C(=O)N3CCC[C@H]3C(=O)N(C)CC(=O)N(C)[C@@H](C(C)C)C(=O)O[C@@H]2C)c(N)c1=O [Dactinomycin] (I: T[dV]P[Sar][NMeV] / II: T[dV]P[Sar][NMeV]; ester I:1-I:C, II:1-II:C; linker I:N-II:N via Actinocin(9to1))
IC50 in HepG2 cells (HepG2 cells [1]): Inactive | Emax (HepG2 cells [2]): 1% | IC50 ([3]; Plasmodium falciparum, 3D7, read-out: Gametocyte IC50): 0.015 µM | IC50 ([4]; Plasmodium falciparum, HB3, read-out: HB3-gametocytes IC50): 0.019 µM | IC50 ([5]; Plasmodium falciparum, DD2, read-out: Dd2-gametocytes IC50): 0.033 µM

CNCCCN1c2ccccc2CCc2ccccc21 [Desipramine hydrochloride]
Emax [3, 14]: 101% | Activity against asexual parasites Efficacy (% response) [6]: inactive | Activity against asexual parasites IC50 [6]: inactive

CN(C)CCCN1c2ccccc2C(C)(C)c2ccccc21 [Dimetacrine, reference compound]
Emax ([3]; Plasmodium falciparum, 3D7, read-out: Activity against gametocytes Efficacy (% response), SI Table 3, structure clusters): 77% | IC50 ([3]; Plasmodium falciparum, 3D7, read-out: Activity against gametocytes IC50, SI Table 3, structure clusters): 22.4 µM | Activity against asexual parasites Efficacy (% response) [6]: inactive | Activity against asexual parasites IC50 [6]: inactive

COc1ncc(-c2ccc3nccc(-c4ccnnc4)c3c2)cc1NS(=O)(=O)c1ccc(F)cc1F [GSK-458]
IC50 in HepG2 cells (HepG2 cells [1]): Inactive | % Max response (HepG2 cells [1]): 33% | IC50 [3, 11]: 0.935 µM | IC50 [4, 12]: 0.332 µM | IC50 [5, 13]: 1.48 µM

CN(CCCN1c2ccccc2CCc2ccccc21)CC(=O)c1ccc(Cl)cc1 [Lofepramine hydrochloride, reference compound]
Emax [3, 14]: 103% | IC50 [3, 15]: 19.9 µM | Activity against asexual parasites Efficacy (% response) [6]: -103.99 % response | IC50 [6]: 10 µM

CCCCN(CCCC)CC(O)c1cc(Cl)cc2c1-c1ccc(Cl)cc1/C2=C/c1ccc(Cl)cc1 (stereo not drawn) [Lumefantrine]
Emax [3, 14]: 76.5% | IC50 [3, 10]: 0.059 µM | IC50 [4, 8]: 0.033 µM | Activity against asexual parasites Efficacy (% response) [6]: -93.57 % response | IC50 [6]: 0.02 µM | IC50 [5, 9]: 0.013 µM

CN(C)CCC=C1c2ccccc2C(C)(C)c2ccccc21.Cl [Melitracen hydrochloride, reference compound]
Activity against gametocytes Efficacy (% response) ([3]; SI Table 3, structure clusters): -103.56 % response | IC50 [3, 16]: 35.5 µM | Activity against asexual parasites Efficacy (% response) [6]: inactive | Activity against asexual parasites IC50 [6]: inactive

CN1C[C@@H](NS(=O)(=O)N(C)C)C[C@@H]2c3cccc4c3c(cn4C)C[C@H]21 [Mesulergine, reference compound]
Emax [3, 14]: 64% | IC50 [3, 15]: 35.5 µM | Activity against asexual parasites Efficacy (% response) [6]: inactive | Activity against asexual parasites IC50 [6]: inactive

CN1C[C@H](CNC(=O)OCc2ccccc2)C[C@@H]2c3cccc4c3c(cn4C)C[C@H]21 [Metergoline, reference compound]
IC50 [3, 15]: 12.6 µM | IC50 [3, 16]: 22.4 µM | Activity against asexual parasites Efficacy (% response) [6]: -71.24 % response | IC50 [6]: 12.6 µM

COc1ccc(C2NC(=S)N3C(c4ccc(OC)c(OC)c4)NC(=S)N23)cc1OC (stereo not drawn) [NSC174938]
IC50 in HepG2 cells (HepG2 cells [1]): Inactive

CO[C@]12C[C@@H](COC(=O)c3cncc(Br)c3)CN(C)[C@@H]1Cc1cn(C)c3cccc2c13 [Nicergoline, reference compound]
Emax [3, 14]: 39.4% | IC50 [3, 15]: 22.4 µM | Activity against asexual parasites Efficacy (% response) [6]: inactive | Activity against asexual parasites IC50 [6]: inactive

CNCCC=C1c2ccccc2CCc2ccccc21 [Nortriptyline hydrochloride, reference compound]
Emax [3, 14]: 111% | IC50 [3, 15]: 22.4 µM | IC50 [3, 16]: 35.5 µM | Activity against asexual parasites Efficacy (% response) [6]: inactive | Activity against asexual parasites IC50 [6]: inactive

COC(=O)C[C@](O)(CCCC(C)(C)O)C(=O)O[C@@H]1C(OC)=C[C@]23CCCN2CCc2cc4c(cc2[C@H]13)OCO4 [Omacetaxine]
IC50 in HepG2 cells (HepG2 cells [1]): Curve not complete | % Max response (HepG2 cells [1]): -27% | IC50 [3, 11]: 0.083 µM

NC(=O)N1c2ccccc2CC(=O)c2ccccc21 [Oxcarbazepine, reference compound]
Activity against gametocytes Efficacy (% response) ([3]; SI Table 3, structure clusters): inactive | Activity against gametocytes IC50 ([3]; SI Table 3, structure clusters): inactive | Activity against asexual parasites Efficacy (% response) [6]: inactive | Activity against asexual parasites IC50 [6]: inactive

CCCN1C[C@H](CSC)C[C@@H]2c3cccc4[nH]cc(c34)C[C@H]21 [Pergolide methanesulfonate, reference compound]
Emax [3, 14]: 83.5% | IC50 [3, 15]: 22.4 µM | Activity against gametocytes IC50 ([3]; SI Table 3, structure clusters): inactive | Activity against asexual parasites Efficacy (% response) [6]: inactive | Activity against asexual parasites IC50 [6]: inactive

CNCCCC1c2ccccc2C=Cc2ccccc21 [Protriptyline hydrochloride]
Emax [3, 14]: 81.7% | Activity against asexual parasites Efficacy (% response) [6]: inactive | Activity against asexual parasites IC50 [6]: inactive

C=CC1CN2CCC1CC2C(O)c1ccnc2ccc(OC)cc12.C=CC1CN2CCC1CC2C(O)c1ccnc2ccc(OC)cc12.O=S(=O)(O)O (stereo not drawn) [Quinine hemisulfate]
IC50 in HepG2 cells (HepG2 cells [1]): Inactive | % Max response (HepG2 cells [1]): 2% | IC50 [3, 11]: 0.345 µM | IC50 [4, 12]: 0.235 µM | IC50 [5, 13]: 0.083 µM

CCN(CC)C(=O)N[C@H]1C[C@@H]2c3cccc4[nH]cc(c34)C[C@H]2N(C)C1 [Terguride, reference compound]
Emax [3, 14]: 80.7% | IC50 [3, 15]: 28.2 µM | Activity against asexual parasites Efficacy (% response) [6]: inactive | Activity against asexual parasites IC50 [6]: inactive

CC(=O)Nc1cccc(-n2c(=O)n(C3CC3)c(=O)c3c(Nc4ccc(I)cc4F)n(C)c(=O)c(C)c32)c1 [Trametinib]
IC50 in HepG2 cells (HepG2 cells [1]): Inactive | Emax (HepG2 cells [2]): 14% | IC50 [3, 7]: 0.935 µM

CC(CN(C)C)CN1c2ccccc2CCc2ccccc21 (stereo not drawn) [Trimipramine maleate, reference compound]
Emax [3, 14]: 47% | IC50 [3, 15]: 22.4 µM | Activity against gametocytes IC50 ([3]; SI Table 3, structure clusters): inactive | Activity against asexual parasites IC50 [6]: inactive | IC50 [6]: 30.7 µM

Monensin sodium
IC50 in HepG2 cells (HepG2 cells [1]): Inactive | % Max response (HepG2 cells [1]): 40% | IC50 [3, 17]: 0.254 µM | IC50 [4, 18]: 0.264 µM | IC50 [5, 19]: 0.372 µM

Plicamycin
IC50 in HepG2 cells (HepG2 cells [1]): Inactive | % Max response (HepG2 cells [1]): 3% | IC50 [3, 17]: 0.833 µM | IC50 [4, 18]: 2.96 µM | IC50 [5, 19]: 2.35 µM
